This is an account of results in paper PMC8966664 (Frontiers in Pharmacology, 2022).

One data set deals with T1, CYP2B2 (Rattus norvegicus, UniProt P04167).
T1 construct: and 1 mg/ml rat liver microsomes; from tissue; host or cells: rat liver microsomes
T1 sequence (P04167 1-491): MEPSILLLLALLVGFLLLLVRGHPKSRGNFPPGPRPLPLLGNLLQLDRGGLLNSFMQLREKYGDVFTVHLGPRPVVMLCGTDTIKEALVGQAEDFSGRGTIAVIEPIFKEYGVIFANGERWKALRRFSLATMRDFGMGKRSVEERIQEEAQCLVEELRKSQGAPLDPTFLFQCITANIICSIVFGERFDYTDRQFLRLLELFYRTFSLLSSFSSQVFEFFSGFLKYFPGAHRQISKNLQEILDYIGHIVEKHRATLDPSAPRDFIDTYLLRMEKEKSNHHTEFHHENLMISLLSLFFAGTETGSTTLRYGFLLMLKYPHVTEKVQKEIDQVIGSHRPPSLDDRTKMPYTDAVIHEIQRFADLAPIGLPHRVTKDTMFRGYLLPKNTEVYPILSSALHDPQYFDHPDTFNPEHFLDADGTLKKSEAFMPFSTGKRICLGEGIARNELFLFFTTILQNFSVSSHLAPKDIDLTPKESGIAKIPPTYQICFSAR
Details: method as in Otten et al., 2011. The settings on record: CYP enzyme 2B2; cocktail probe substrate parameter, source not stated; ref Otten et al., 2011; cited from earlier work.

A further data set addresses T2, CYP2A2 (Rattus norvegicus, UniProt P15149).
T2 construct: and 1 mg/ml rat liver microsomes; from tissue; host or cells: rat liver microsomes
Details: method as in Otten et al., 2011. The note with it: CYP enzyme 2A2; cocktail probe substrate parameter, source not stated; ref Otten et al., 2011; cited from earlier work.

Another data set has as its target T3, CYP2D1 (Rattus norvegicus, UniProt P10633).
T3 construct: and 1 mg/ml rat liver microsomes; from tissue; host or cells: rat liver microsomes
T3 sequence (P10633 1-504): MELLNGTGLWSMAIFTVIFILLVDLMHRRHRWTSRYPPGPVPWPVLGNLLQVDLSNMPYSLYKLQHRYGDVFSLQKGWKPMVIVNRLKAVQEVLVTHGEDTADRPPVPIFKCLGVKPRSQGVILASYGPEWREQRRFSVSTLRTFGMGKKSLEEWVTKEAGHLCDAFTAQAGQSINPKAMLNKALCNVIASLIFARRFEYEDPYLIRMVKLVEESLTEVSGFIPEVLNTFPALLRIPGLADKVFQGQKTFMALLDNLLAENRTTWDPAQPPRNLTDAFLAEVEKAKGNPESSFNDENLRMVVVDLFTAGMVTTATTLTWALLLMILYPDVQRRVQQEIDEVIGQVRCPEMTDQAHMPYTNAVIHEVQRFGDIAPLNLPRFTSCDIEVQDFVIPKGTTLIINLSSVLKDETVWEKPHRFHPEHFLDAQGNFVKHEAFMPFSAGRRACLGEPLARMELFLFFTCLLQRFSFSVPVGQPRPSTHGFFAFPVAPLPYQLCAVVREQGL
On the set-up: method as in Otten et al., 2011. The note with it: CYP enzyme 2D1; cocktail probe substrate parameter, source not stated; ref Otten et al., 2011; cited from earlier work.

Data set [1] deals with bacterial ß-D-glucuronidase. Details: method as in Takeda et al., 1996. The settings on record: gastrointestinal tract, after oral administration; ref Takeda et al., 1996; cited from earlier work.
The test system of the next data set is rat liver microsomes. Kind of data set: Formation of 7,9-diGS-DHP from RTS in rat liver microsomes. Format: biochemical. The note with it: KCZ 25 µM; 1 mg/ml rat liver microsomes, 200 µM RTS. The procedure:
The injection volume was 3 μL. […] The injection volume was 5 µL.
Background: Microsomes from liver hold many membrane-bound enzymes, among them those of drug oxidation.

A further data set concerns CYP1A2. The settings on record: CYP enzyme 1A2; cocktail probe substrate parameter, source not stated; ref Otten et al., 2011; cited from earlier work.
Another data set concerns the target T4, CYP2C11 (Rattus norvegicus, UniProt P08683).
T4 construct: and 1 mg/ml rat liver microsomes; from tissue; host or cells: rat liver microsomes
T4 sequence (P08683 1-500): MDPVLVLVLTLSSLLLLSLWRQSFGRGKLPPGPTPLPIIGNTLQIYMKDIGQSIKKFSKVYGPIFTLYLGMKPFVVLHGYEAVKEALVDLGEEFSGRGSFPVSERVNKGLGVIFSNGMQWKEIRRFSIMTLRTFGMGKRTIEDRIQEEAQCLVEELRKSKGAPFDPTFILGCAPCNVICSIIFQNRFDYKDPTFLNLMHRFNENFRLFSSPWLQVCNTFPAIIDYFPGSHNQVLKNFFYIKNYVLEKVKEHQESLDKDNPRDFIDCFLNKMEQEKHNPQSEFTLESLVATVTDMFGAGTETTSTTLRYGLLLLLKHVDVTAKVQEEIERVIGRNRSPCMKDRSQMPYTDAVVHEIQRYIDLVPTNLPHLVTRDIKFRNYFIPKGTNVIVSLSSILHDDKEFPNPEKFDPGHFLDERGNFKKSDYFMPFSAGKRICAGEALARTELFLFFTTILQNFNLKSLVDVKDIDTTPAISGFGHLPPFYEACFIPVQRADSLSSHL
On the set-up: method as in Otten et al., 2011. The note with it: CYP enzyme 2C11; cocktail probe substrate parameter, source not stated; ref Otten et al., 2011; cited from earlier work.

As usually defined, the Km is the concentration of substrate that gives half-maximal velocity.

T2 sequence (P15149 whole entry): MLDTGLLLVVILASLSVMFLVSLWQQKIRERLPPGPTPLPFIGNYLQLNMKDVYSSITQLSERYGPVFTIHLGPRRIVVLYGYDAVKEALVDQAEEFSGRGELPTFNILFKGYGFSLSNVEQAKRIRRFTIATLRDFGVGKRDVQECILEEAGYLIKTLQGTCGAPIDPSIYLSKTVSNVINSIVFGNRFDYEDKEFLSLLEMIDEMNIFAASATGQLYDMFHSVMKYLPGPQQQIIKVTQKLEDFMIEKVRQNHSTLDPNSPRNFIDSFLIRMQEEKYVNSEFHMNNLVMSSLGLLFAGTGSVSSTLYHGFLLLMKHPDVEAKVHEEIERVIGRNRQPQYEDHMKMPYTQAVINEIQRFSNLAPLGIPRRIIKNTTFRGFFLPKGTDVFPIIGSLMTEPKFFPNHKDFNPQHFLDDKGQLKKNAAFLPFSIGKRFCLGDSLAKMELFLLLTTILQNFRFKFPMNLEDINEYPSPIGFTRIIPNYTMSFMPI

For `CC(NC(C)(C)C)C(=O)c1cccc(Cl)c1` (stereo not shown) [Bupropion], the Km at CYP2B2 was 67 to 168 µM.

Take `O=c1ccc2ccccc2o1` [Coumarin]: the Km at CYP2A2 is 300 to 2300 nM.

For the compound `COc1ccc2c(c1)[C@]13CCCC[C@@H]1[C@H](C2)N(C)CC3` [Dextromethorphan], at CYP2D1, the Km is 0.4 to 8.5 µM.

For `CC1(C)[C@@H](O[C@H]2O[C@H](C(=O)O)[C@@H](O)[C@H](O)[C@H]2O[C@@H]2O[C@H](C(=O)O)[C@@H](O)[C@H](O)[C@H]2O)CC[C@]2(C)[C@H]3C(=O)C=C4[C@@H]5C[C@@](C)(C(=O)O)CC[C@]5(C)CC[C@@]4(C)[C@]3(C)CC[C@@H]12` [GL, Glycyrrhizin], in data set [1], the “fraction of GL irreversibly transformed into 18β-GA” value is given as approximately 100%.

In the case of `CC(=O)N1CCN(c2ccc(OCC3COC(Cn4ccnc4)(c4ccc(Cl)cc4Cl)O3)cc2)CC1` (stereo not shown) [KCZ, ketoconazole], the “reduction of the formation of 7,9-diGS-DHP” value with rat liver microsomes is 62%.

Consider `CCOc1ccc(NC(C)=O)cc1` [Phenacetin], for which the Km in the data set with CYP1A2 is 1.7 to 152 µM.

Turning to `CC[C@@]1(c2ccccc2)NC(=O)N(C)C1=O` [S-Mephenytoin], on CYP2C11, the Km was 13 to 35 µM.
